From patent US20180273528A1 (LES LABORATOIRES SERVIER, priority 2015, published 2018)

Tests used:
[1] = target: T1, CDK9 (Homo sapiens, UniProt P50750); experiment: Kinase TR-FRET assay, CDK9; assay type: biochemical; details: full-length human kinase, 10 μM ATP
T1 construct: full-length human kinases from Carna Biosciences; purchased Carna Biosciences 04-110
Method in brief: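 Full-length human CDK9 (0.9 ng/μl) incubated 100 min at room temperature with 10 μM ATP, 100 nM ULight-MBP peptide and compound (0.1 nM–30 μM) in 50 mM HEPES pH 7.4, 1 mM EGTA, 10 mM MgCl2, 2 mM DTT, 0.01% Tween20. Stopped with 10 mM EDTA, then 1 nM Eu-anti-phospho-Thr232 MBP antibody added for 1 h. TR-FRET read at 665/620 nm with 340 nm excitation.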

[2] = target: T2, CLK1 (Homo sapiens, UniProt P49759); experiment: Kinase TR-FRET assay, CLK1; assay type: biochemical; details: full-length human kinase, 10 μM ATP
T2 construct: full-length human kinases from Carna Biosciences; purchased Carna Biosciences 04-126
T2 sequence (P49759 1-526 isoform P49759-3): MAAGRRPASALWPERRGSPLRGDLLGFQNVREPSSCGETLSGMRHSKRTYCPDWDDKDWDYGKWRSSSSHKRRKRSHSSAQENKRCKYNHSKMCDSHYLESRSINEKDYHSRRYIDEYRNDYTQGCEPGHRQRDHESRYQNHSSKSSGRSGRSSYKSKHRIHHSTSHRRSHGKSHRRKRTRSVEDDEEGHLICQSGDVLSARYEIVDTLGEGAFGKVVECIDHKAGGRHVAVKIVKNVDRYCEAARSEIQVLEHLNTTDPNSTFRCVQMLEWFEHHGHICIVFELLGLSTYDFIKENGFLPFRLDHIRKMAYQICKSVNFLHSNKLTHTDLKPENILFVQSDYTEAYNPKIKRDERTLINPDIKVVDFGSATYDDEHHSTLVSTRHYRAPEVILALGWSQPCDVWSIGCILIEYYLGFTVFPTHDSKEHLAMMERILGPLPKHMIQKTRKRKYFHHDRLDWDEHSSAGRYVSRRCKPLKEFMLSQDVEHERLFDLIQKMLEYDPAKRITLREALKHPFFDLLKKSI
Method in brief: (§1)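 Compounds tested at 0.1 nM to 30 μM in reaction buffer; reaction stopped with 10 mM EDTA. Phosphorylated MBP detected with 1 nM Europium-labelled anti-phospho-Thr232 antibody by TR-FRET.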

[3] = target: T3, DYRK1A (Homo sapiens, UniProt Q13627); experiment: Kinase TR-FRET assay, DYRK1A; assay type: biochemical; parameters: full-length, wild-type human DYRK1A (NM_001396) with an HA tag; expressed in transfected cells; host or cells: human U2-OS osteosarcoma cells, transient transfection of a pcDNA3.1 plasmid; details: full-length human kinase, 10 μM ATP
Method in brief: as §1

[4] = target: T3, DYRK1A; experiment: Cellular DYRK1 autophosphorylation assay in U2-OS cells; assay type: cell-based; parameters: full-length, wild-type human DYRK1A (NM_001396) with an HA tag; expressed in transfected cells; host or cells: human U2-OS osteosarcoma cells, transient transfection of a pcDNA3.1 plasmid; details: U2-OS cells transfected with HA-tagged human DYRK1A, 5 hours exposure; read-out: IC50 (μM) P-Ser520-Dyrk1A -Cell assay
Method in brief: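 U2-OS cells treated with a compound concentration range for 5 h. Phospho-Ser520-DYRK1A measured by western blot densitometry or Mesoscale ELISA. IC50 from dose-response curves; for blots, ratio of phospho-Ser520 to total DYRK1A signal.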

[5] = target: T4, DYRK1B (Homo sapiens, UniProt Q9Y463); experiment: Kinase TR-FRET assay, DYRK1B; assay type: biochemical; details: full-length human kinase, 10 μM ATP
T4 construct: full-length human kinases from Carna Biosciences; purchased Carna Biosciences 04-131
T4 sequence (Q9Y463 whole entry): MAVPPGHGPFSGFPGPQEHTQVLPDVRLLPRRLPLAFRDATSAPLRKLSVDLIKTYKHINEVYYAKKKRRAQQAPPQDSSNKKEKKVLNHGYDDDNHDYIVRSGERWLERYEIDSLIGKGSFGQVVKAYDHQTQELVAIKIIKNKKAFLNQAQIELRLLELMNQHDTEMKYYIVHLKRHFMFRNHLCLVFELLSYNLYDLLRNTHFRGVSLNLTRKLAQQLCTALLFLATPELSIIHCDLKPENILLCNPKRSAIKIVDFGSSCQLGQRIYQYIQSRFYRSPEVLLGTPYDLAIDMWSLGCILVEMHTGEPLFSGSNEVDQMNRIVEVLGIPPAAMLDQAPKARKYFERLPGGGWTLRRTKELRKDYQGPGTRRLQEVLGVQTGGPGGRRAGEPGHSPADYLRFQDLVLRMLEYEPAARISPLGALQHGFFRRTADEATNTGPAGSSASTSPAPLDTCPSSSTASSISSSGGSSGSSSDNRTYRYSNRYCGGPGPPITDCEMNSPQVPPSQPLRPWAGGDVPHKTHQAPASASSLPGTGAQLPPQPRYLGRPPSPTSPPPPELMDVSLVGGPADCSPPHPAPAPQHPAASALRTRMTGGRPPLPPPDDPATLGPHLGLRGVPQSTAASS
Method in brief: as §1

[6] = target: T5, His-TEV-DYRK1A Kinase domain (aa127-485) (Homo sapiens, UniProt Q13627); experiment: Kinase ADP assay (ADP Hunter), DYRK1A kinase domain; assay type: biochemical; details: 20 μM ATP
T5 construct: His-TEV-DYRK1A Kinase domain (aa127-485); His tag (N); TEV protease cleavage site (N)
Method in brief: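 Compounds incubated 10 min at 30 °C with 20 nM enzyme, 40 μM peptide substrate and 20 μM ATP in pH 7.4 Hepes buffer with 10 mM MgCl2. ADP formed detected by ADP Hunter Plus reagents after 20 min at 30 °C, fluorescence read at 590 nm.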

T1 sequence (P50750 whole entry): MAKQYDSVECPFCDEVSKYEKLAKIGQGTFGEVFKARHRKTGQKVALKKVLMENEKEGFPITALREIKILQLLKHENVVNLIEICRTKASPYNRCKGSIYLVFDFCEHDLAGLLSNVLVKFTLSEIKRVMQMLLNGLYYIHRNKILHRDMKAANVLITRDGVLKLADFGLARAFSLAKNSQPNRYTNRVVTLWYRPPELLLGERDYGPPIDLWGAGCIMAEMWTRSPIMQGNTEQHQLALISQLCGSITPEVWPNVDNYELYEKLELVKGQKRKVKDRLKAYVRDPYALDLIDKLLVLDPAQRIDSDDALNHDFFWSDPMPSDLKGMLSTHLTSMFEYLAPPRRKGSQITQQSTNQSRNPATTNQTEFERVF
T1 sequence (O60563 whole entry partner): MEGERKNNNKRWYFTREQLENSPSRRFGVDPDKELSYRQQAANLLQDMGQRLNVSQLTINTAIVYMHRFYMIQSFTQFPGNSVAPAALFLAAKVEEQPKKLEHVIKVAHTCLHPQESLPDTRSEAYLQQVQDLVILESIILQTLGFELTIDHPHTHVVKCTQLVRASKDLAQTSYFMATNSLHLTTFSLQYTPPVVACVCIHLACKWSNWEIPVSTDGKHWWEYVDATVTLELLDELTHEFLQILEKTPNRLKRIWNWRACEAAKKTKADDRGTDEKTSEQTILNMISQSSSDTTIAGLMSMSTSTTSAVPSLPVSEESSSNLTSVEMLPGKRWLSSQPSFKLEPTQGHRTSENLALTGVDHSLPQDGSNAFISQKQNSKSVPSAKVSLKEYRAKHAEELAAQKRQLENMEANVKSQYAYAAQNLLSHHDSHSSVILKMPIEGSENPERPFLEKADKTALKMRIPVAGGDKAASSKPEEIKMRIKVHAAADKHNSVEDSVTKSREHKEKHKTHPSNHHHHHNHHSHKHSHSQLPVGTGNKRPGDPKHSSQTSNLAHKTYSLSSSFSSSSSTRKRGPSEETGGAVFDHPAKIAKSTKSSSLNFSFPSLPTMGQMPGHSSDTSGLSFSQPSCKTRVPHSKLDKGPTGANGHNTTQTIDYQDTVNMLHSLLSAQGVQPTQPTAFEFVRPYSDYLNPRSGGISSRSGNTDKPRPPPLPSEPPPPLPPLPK

IC50 [1] [µM] | IC50 [2] [µM] | IC50 [3] [µM] | IC50 [4] [µM] | IC50 [5] [µM] | IC50 [6] [µM] | SMILES
> 10 | 0.017 | 0.003 | 0.083 | 0.04 | 0.007 | Cc1nc2ccc(-c3cc(N)nc(N)c3)nc2n1CCOc1c(F)cccc1F [Example 212, 4-{3-[2-(2,6-difluorophenoxy)ethyl]-2-methyl-3H-imidazo[4,5-b]pyridin-5-yl}pyridine-2,6-diamine]
0.724 | 0.019 | 0.003 | 0.075 | 0.013 | 0.011 | Nc1cc(-c2ccc3nc(Cl)n(C4CCCC4)c3n2)cc(N)n1 [Example 220, 4-(2-chloro-3-cyclopentyl-3H-imidazo[4,5-b]pyridin-5-yl)pyridine-2,6-diamine]
0.317 | 0.016 | 0.027 | 0.043 | 0.012 | 0.008 | N#Cc1nc2ccc(-c3cc(N)nc(N)c3)nc2n1C1CCCC1 [Example 221, 3-cyclopentyl-5-(2,6-diaminopyridin-4-yl)-3H-imidazo[4,5-b]pyridine-2-carbonitrile]
> 3 | 0.062 | 0.018 | 0.244 | 0.031 | 0.023 | N#Cc1nc2ccc(-c3cc(N)nc(N)c3)nc2n1CCOc1ccccc1 [Example 222, 5-(2,6-diaminopyridin-4-yl)-3-(2-phenoxyethyl)-3H-imidazo[4,5-b]pyridine-2-carbonitrile]
0.713 | 0.023 | 0.005 | 0.148 | 0.01 | 0.013 | N#Cc1nc2ccc(-c3cc(N)nc(N)c3)nc2n1CCCC(F)(F)F [Example 226, 5-(2,6-diaminopyridin-4-yl)-3-(4,4,4-trifluorobutyl)-3H-imidazo[4,5-b]pyridine-2-carbonitrile]
